Experimental data published in US10870851B2, “Non-coding RNAs linked to immortality and associated methods and compositions” (The Regents of the University of California, priority 2015, dated 2020).
“Also recorded” adds a separate entry of the source.

Columns and labels:
[1] = MORT transcript half-life using actinomycin D treatment; type: cell-based; settings: actinomycin D 1 μg/ml; c-MYC and GAPDH as reference genes
Experimental: FIG. 7 is a graph showing determination of MORT transcript half-life using actinomycin D (1 μg/ml) treatment. c-MYC was used as a short half-life reference gene and GAPDH was used as a long half-life reference gene. (Yang et al. 2003). […] The error bars show the SEM of 3 independent experiments.
(§1) The reverse transcription and real-time PCR was performed as previously described in Oshiro M M, Watts G S, Wozniak R J, Junk D J, Munoz-Rodriguez J L, Domann F E, Futscher B W. Mutant p53 and aberrant cytosine methylation cooperate to silence gene expression. Oncogene 2003; 22:3624-34 (reference 1 herein), and Vrba L, Junk D J, Novak P, Futscher B W. p53 induces distinct epigenetic states at its direct target promoters. BMC Genomics 2008; 9:486 (reference 41 herein), both incorporated herein by reference. Primers were designed for MORT, GAPDH, MYC and XIST and used with the Human Universal Probe Library Set (Roche Diagnostics). The cycle threshold (Ct) MORT values were normalized between the samples using GAPDH Ct values. The data were then converted into a value that is in log 2 scale, but increases with the expression level using formula 40-Ct. Since 40 was the total number of PCR cycles it was the lowest detectable expression level and therefore it was considered the background and set as 0 to display the data in the plots.

[2] = system: Immortal, MORT(−) 184Dp16sMY HMEC; assay: Reversal of immortalization: lentiviral restoration of MORT expression in immortal HMEC; type: cell-based, human; settings: qRT/PCR during MORT-mediated senescence
Experimental: Clontech's Tet-On® 3G system was used to construct lentiviral vectors that express 1) the MORT lncRNA sequence (MORT-Exact)(SEQ ID NO:8) and 2) an aberrant MORT lncRNA to which 60 nucleotides were added at the 5′ end of MORT that was predicted to disrupt RNA secondary structure rendering MORT either hypomorphic or completely nonfunctional (MORT-null). […] Immortal, MORT(−) 184Dp16sMY HMEC were either untreated or transduced with a lentivirus that expressed MORT-Exact, MORT-Null, or eGFP. Cells transduced with MORT-Exact cease growth and take on senescent phenotypes (FIG. 19A-19B).

MCF7 = assay: 5-AdC treatment of MORT-negative breast tumor line MCF7; type: cell-based, human; settings: 1 μM 5-AdC for 96 h
Experimental: (§2) Finite and immortalized HMEC were generated and grown as previously described^1, 2, 32. […] […]. Retroviral transduction was performed as described^1, 2. Breast tumor lines MDA-MB231, MDA-MB453, and MCF7 were grown as previously described^33, 34.
(§3) Cells were treated with 1 μM 5-aza-2′-deoxycytidine (Sigma) for 96 h, as previously described^33.
(§4) DNA methylation analysis by MassARRAY. DNA methylation analysis by Sequenom MassARRAY (Sequenom) was performed as described^40. Primer sequences are provided in FIG. 18 and are SEQ ID NOs: 3, 4, 5, and 6. Oligonucleotides used for MassARRAY analysis were ordered from Integrated DNA Technologies. Two MassARRAY amplicons covered 800 bp region including the first MORT exon and about 500 bp upstream MORT transcription start (FIG. 4C). The mean DNA methylation of all 26 informative CpG units within MassARRAY amplicons was used for data presentation and statistical analysis.
(§5) The reverse transcription and real-time PCR was performed as previously described in Oshiro M M, Watts G S, Wozniak R J, Junk D J, Munoz-Rodriguez J L, Domann F E, Futscher B W. Mutant p53 and aberrant cytosine methylation cooperate to silence gene expression. Oncogene 2003; 22:3624-34 (reference 1 herein), and Vrba L, Junk D J, Novak P, Futscher B W. p53 induces distinct epigenetic states at its direct target promoters. […]

184Dp16sMY HMEC = assay: 5-AdC treatment of immortalized MORT negative HMEC line 184Dp16sMY; type: cell-based, human; settings: 96 h treatment, three concentrations of 5-AdC (FIG. 14)
Experimental: Finite and immortalized HMEC were generated and grown as previously described^1, 2, 32. […]. Retroviral transduction was performed as described^1, 2. Breast tumor lines MDA-MB231, MDA-MB453, and MCF7 were grown as previously described^33, 34. […]
as §1, with “plots. […]” for “plots.”

MDA-MB453 = assay: 5-AdC treatment of MORT-negative breast tumor line MDA-MB453; type: cell-based, human; settings: 1 μM 5-AdC for 96 h
Experimental: as §2, §3, §4, §5

MDA-MB231 = assay: 5-AdC treatment of MORT-negative breast tumor line MDA-MB231; type: cell-based, human; settings: 1 μM 5-AdC for 96 h
Experimental: as §2, §3, §4, §5

Molecule: MORT: long non-coding RNA (lincRNA), 1.53 kb, ribonucleotide sequence SEQ ID NO:7
- MORT transcript half-life [1]: ~15 h
- induced overexpression of p16 or p14 [2]: not due to induced overexpression of p16 or p14
- induction of p53 and p53 target genes MDM2, p21, PIG3, MASPIN [2]: neither p53 nor well-defined p53 target genes, MDM2, p21, PIG3, and MASPIN were induced

Molecule: Nc1ncn([C@H]2C[C@H](O)[C@@H](CO)O2)c(=O)n1 [5-AdC, 5-aza-2′-deoxycytidine]
- level of DNA methylation of the MORT promoter (MCF7; Sequenom MassARRAY): significant decrease
- MORT expression (transcript level) (MCF7; real-time PCR): reactivation of MORT expression
- MORT transcription (transcript level) (184Dp16sMY HMEC): reactivation of MORT transcription; also recorded: increased MORT level
- level of DNA methylation of the MORT promoter (MDA-MB453; Sequenom MassARRAY): significant decrease
- MORT expression (transcript level) (MDA-MB453; real-time PCR): reactivation of MORT expression
- level of DNA methylation of the MORT promoter (MDA-MB231; Sequenom MassARRAY): significant decrease
- MORT expression (transcript level) (MDA-MB231; real-time PCR): reactivation of MORT expression
